Columns and labels:
OR9 = experiment: Olfactory receptor response measurement, CRE-luciferase reporter in HEK-Olf cells; format: cell-based, human; settings: ◯ = receptor responds to the fragrance; luminescence after 3 hours
OR3 = experiment: as above; format: cell-based, human; settings: ◯ = receptor responds to the fragrance; luminescence after 3 hours
OR10 = experiment: as above; format: cell-based, human; settings: ◯ = receptor responds to the fragrance; luminescence after 3 hours
From the text: (§1) An olfactory receptor gene library (pFN21KSPc HaloTag-OR) prepared by inserting 351 human olfactory receptor genes obtained from a human cDNA library into the pFN21KSPc HaloTag vector was purchased from Kazusa Genome Technologies. Of the 351 types, olfactory receptors OR1A1, OR2B11, and the like were polymorphisms known to show low responses to known agonists, such that the olfactory receptors were modified into polymorphisms with high responsiveness for use in the subsequent test (Joel D. Mainland, et al., Nat Neurosci. 2014; 17(1): p. 114-120).
The cell line HEK-Olf obtained in Example 1 was prepared in DMEM medium (Thermo Fisher) and then seeded in a 96-well plate (Corning) at 1×10^4 cells/well. Subsequently, pFN21KSPc HaloTag-OR and pGL4.29[luc2P/CRE/Hygro] […]
(§2) Each olfactory receptor expressing HEK-Olf obtained above was cultured for 24 hours at 37° C. under 5% CO2; then the medium was removed, and test compounds (candidate substances) prepared appropriately in DMEM medium were added in 50 μL aliquots. […] After 3 hours of reaction at 37° C. under 5% CO2, responses of the olfactory receptors were obtained by luminescence measurement using ONE-Glo (trademark) Luciferase Assay kit (Promega).
(§3) The response intensity R of an olfactory receptor at each concentration was calculated using the luminescence intensity (RLU) obtained in the measurement, based on formula (6) below: […]

OR8 = experiment: as above; format: cell-based, human; settings: ◯ = receptor responds to the fragrance; luminescence after 3 hours
OR7 = experiment: as above; format: cell-based, human; settings: ◯ = receptor responds to the fragrance; luminescence after 3 hours
OR6 = experiment: as above; format: cell-based, human; settings: ◯ = receptor responds to the fragrance; luminescence after 3 hours
From the text: as §1
(§4) The cell line HEK-Olf obtained in Example 1 was prepared in DMEM medium (Thermo Fisher) and then seeded in a 96-well plate (Corning) at 1×10^4 cells/well. Subsequently, pFN21KSPc HaloTag-OR and pGL4.29[luc2P/CRE/Hygro] Vector (Promega) were introduced into the HEK-Olf with ViaFect (trademark) Transfection Reagent (Promega). At this time, pFN21KSPc HaloTag-OR and pGL4.29[luc2P/CRE/Hygro] Vector were prepared to give 70 ng/well and 30 ng/well, respectively. Using each olfactory receptor expressing HEK-Olf thus constructed, measurement of responses of the olfactory receptors was performed as follows.
(§5) Each olfactory receptor expressing HEK-Olf obtained above was cultured for 24 hours at 37° C. under 5% CO2; then the medium was removed, and test compounds (candidate substances) prepared appropriately in DMEM medium were added in 50 μL aliquots. DMEM medium containing no test compound was added to negative control wells, and forskolin adjusted to 3 μM was added to positive control wells. After 3 hours of reaction at 37° C. under 5% CO2, responses of the olfactory receptors were obtained by luminescence measurement using ONE-Glo (trademark) Luciferase Assay kit (Promega).
as §3
(§6) Furthermore, using the curve fitting software XLFit (IDBS), the maximum response intensity and EC50 of the dose response curve were derived.

OR4 = experiment: as above; format: cell-based, human; settings: ◯ = receptor responds to the fragrance; luminescence after 3 hours
From the text: as §1, §4, §5, §3, §6

OR5 = experiment: as above; format: cell-based, human; settings: ◯ = receptor responds to the fragrance; luminescence after 3 hours
From the text: as §1, §4, §5, §3, §6

OR2 = experiment: as above; format: cell-based, human; settings: ◯ = receptor responds to the fragrance; luminescence after 3 hours
From the text: as §1, §4, §5, §3, §6

OR1 = experiment: as above; format: cell-based, human; settings: ◯ = receptor responds to the fragrance; luminescence after 3 hours
From the text: as §1, §4, §5, §3, §6

[1] = Sensory evaluation of similarity in odor quality to coumarin (VAS); format: in vivo, human; settings: headspace aroma, panel of five trained experts, samples in propylene glycol at Table 2 concentrations; FIG. 4
Method: In this example, similarity in odor quality between coumarin and the coumarin reconstitution fragrance obtained in Example 3 was verified by sensory evaluation. In the sensory evaluation, the verification was performed by a panel of five trained experts. The similarity in odor was obtained by evaluating the similarity between the headspace aromas of coumarin presented as a reference and each evaluation sample presented blindly, using a Visual Analog Scale (VAS).

[2] = system: 351 human olfactory receptors; experiment: Response screen of 351 human olfactory receptors; format: cell-based; settings: out of 351 human olfactory receptors; all responders class II
From the text: as §1, with “114-120). […]” for “114-120).”
as §2, §3
Based on the above-described procedure, 351 human olfactory receptors were measured for responses to coumarin as a fragrance. […]

Compound: CCCCC(=O)OCC [Ethyl Valerate, ethyl valerate]
- response of olfactory receptor OR9 to the fragrance (OR9): ◯

Compound: CC(C)[C@@H]1CC[C@@H](C)CC1=O [Menthone, menthone]
- response of olfactory receptor OR3 to the fragrance (OR3): ◯

Compound: C=C(C)[C@@H]1CCC2=CC(=O)C[C@@H](C)[C@]2(C)C1 [Nootkatone, nootkatone]
- response of olfactory receptor OR10 to the fragrance (OR10): ◯
- response of olfactory receptor OR8 to the fragrance (OR8): ◯
- response of olfactory receptor OR7 to the fragrance (OR7): ◯
- response of olfactory receptor OR9 to the fragrance (OR9): ◯

Compound: O=Cc1ccc2c(c1)OCO2 [Piperonal, piperonal]
- response of olfactory receptor OR6 to the fragrance (OR6): ◯
- response of olfactory receptor OR4 to the fragrance (OR4): ◯
- response of olfactory receptor OR5 to the fragrance (OR5): ◯
- response of olfactory receptor OR2 to the fragrance (OR2): ◯
- response of olfactory receptor OR1 to the fragrance (OR1): ◯
- similarity in odor quality to coumarin (VAS) [1]: low similarity

Compound: O=c1ccc2ccccc2o1 [coumarin, reference compound]
- response of olfactory receptor OR6 to the fragrance (OR6): confirmed to respond
- response of olfactory receptor OR4 to the fragrance (OR4): confirmed to respond
- response of olfactory receptor OR5 to the fragrance (OR5): confirmed to respond
- response of olfactory receptor OR2 to the fragrance (OR2): confirmed to respond
- response of olfactory receptor OR1 to the fragrance (OR1): confirmed to respond
- number of olfactory receptors showing dose-dependent responses [2]: six
- response of olfactory receptor OR3 to the fragrance (OR3): confirmed to respond

Compound: O=C(O)C=Cc1ccccc1O [o-Hydroxycinnamic Acid, o-hydroxycinnamic acid]
- response of olfactory receptor OR8 to the fragrance (OR8): ◯
- response of olfactory receptor OR7 to the fragrance (OR7): ◯
- response of olfactory receptor OR9 to the fragrance (OR9): ◯

Compound: CCCC1CCC(=O)O1 (stereo not shown) [γ-Heptalactone, γ-heptalactone]
- response of olfactory receptor OR5 to the fragrance (OR5): ◯
- response of olfactory receptor OR1 to the fragrance (OR1): ◯
- response of olfactory receptor OR3 to the fragrance (OR3): ◯
